The values that follow come from patent US10052331B2, “3-(3H-imidazo[4,5-C]pyridin-2-yl)-1H-pyrazolo[3,4-C]pyridine and therapeutic uses thereof” (Samumed, LLC, priority 2014, dated 2018).

What all share (format): cell-based
The test system of assay [1] is Wnt activity (Wnt-responsive Sp5 promoter-luciferase reporter in SW480 cells). Description: Wnt activity screening assay: Sp5-Luc reporter gene in SW480 colon carcinoma cells. Conditions: Homo sapiens. The essentials:
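IC50 values come from variable-slope four-parameter fits of luciferase signal normalized to DMSO wells. Stable Sp5-Luc reporter SW480 colon carcinoma cells were exposed to compounds in a 3-fold dilution series (source plates from 10 mM stock) for forty-two hours at 37 °C.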
On the technique in general: Reporter assays use an easily measured gene product as a stand-in for the process of interest.

Assay [2] has as its system primary human mesenchymal stem cells (hMSCs). Description: Chondrogenesis induction in primary human mesenchymal stem cells (nodule imaging, Rhodamine B/Nile Red). Conditions: 144 h, 6 days; for EC (100% TGF-beta3 activity): concentration required to induce chondrogenesis equivalent to TGF-β3 positive control, read-out: Conc (nM) of 100% TGF-β3 activity; for Emax: relative to TGF-β3 (10 ng/mL) positive control, read-out: Max. Activity as % TGF-β3 activity. On the procedure: The above synthesized compounds were screened using primary human mesenchymal stem cells (hMSCs) to determine their ability to induce chondrogenesis (process by which cartilage is developed).
Primary human mesenchymal stem cells (hMSCs) were purchased from Lonza (Walkersville, Md.) and expanded in Mesenchymal Stem Cell Growth Media (Lonza). Cells between passage 3 and 6 were used for the experiments.
Each compound was dissolved in DMSO as a 10 mM stock and used to prepare compound source plates. Serial dilution (1:3, 6-point dose-response curves from 2700 nM to 10 nM) and compound transfer was performed using the ECHO 550 (Labcyte, Sunnyvale, Calif.) into 96-well clear bottom assay plates (Greiner Bio-One) with appropriate DMSO backfill for a final DMSO concentration of 0.03%. hMSCs were plated at 20,000 cells/well in 250 μL/well Incomplete Chondrogenic Induction Medium (Lonza; DMEM, dexamethasone, ascorbate, insulin-transferrin-selenium [ITS supplement], gentamycin-amphotericin [GA-1000], sodium pyruvate, proline and L-glutamine). TGF-β3 (10 ng/mL) was used as a positive control for differentiation while negative control wells were treated with 75 nL DMSO for normalization and calculating EC50 values. Cells were incubated at 37° C. and 5% CO2 for 6 days. To image chondrogenic nodules, the cells were fixed using 4% formaldehyde (Electron Microscopy Sciences), and stained with 2 μg/mL Rhodamine B (Sigma-Aldrich) and 20 μM Nile Red (Sigma-Aldrich) [Johnson K., et. al, A Stem Cell-Based Approach to Cartilage Repair, Science, (2012), 336(6082), 717-721]. The nodules imaged (4 images per well at 4× magnification) by excitation at 531 nm and emission at 625 nm and quantified using the CellInsight CX5 (Thermo Scientific). Number of nodules in each well was normalized to the average of 3 DMSO treated wells on the same plate using Excel (Microsoft Inc.). The normalized averages (fold change over DMSO) of 3 replicate wells for each compound concentration were calculated. Due to solubility limitations of some of the compounds, curve fitting was incomplete leading to inaccurate EC50 determinations.
Using TGF-03 as a positive control, the concentration of test compounds required to induce equivalent levels of chondrogenesis is reported. In addition, the maximum activity of each compound and the respective dose that each compound reached maximum chondrogenesis activity is reported.

For assay [3], the system named is primary human fibroblasts derived from IPF patients (LL29 cells). Description: Inhibition of fibrotic process: αSMA staining in TGF-β1-treated primary human fibroblasts from IPF patients (LL29 cells). Conditions: Fibroblast, 96 h, LL29 cells treated with TGF-β1 (20 ng/mL), 4 days, 11-point dose-response from 10 μM to 1.87 nM, read-out: Inhibition of fibrosis EC50. The gist of the method: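 LL29 IPF lung fibroblasts in F12 with 1% FBS, compound (11-point, 10 μM to 1.87 nM, 0.1% DMSO) plus TGF-β1 20 ng/mL for 4 days at 37° C. αSMA-positive % of SYTOX-negative cells by immunofluorescence imaging, normalized to TGF-β1 wells; EC50 from non-linear regression of triplicates.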

In the case of `Cc1ccc(-c2cncc3[nH]c(-c4n[nH]c5cnc(-c6cncc(NC(=O)C7CCC7)c6)cc45)nc23)s1` [Compound 358, N-(5-(3-(7-(5-Methylthiophen-2-yl)-3H-imidazo[4,5-c]pyridin-2-yl)-1H-pyrazolo[3,4-c]pyridin-5-yl)pyridin-3-yl)cyclobutanecarboxamide], in assay [1], half-maximal inhibition (IC50) required 6.7 nM. For the same compound, in assay [2], the EC (100% TGF-beta3 activity) amounted to 231 nM and the Emax is 100%. For the same compound, the 50% effective concentration (EC50) in assay [3] stood at 19 nM.
On the same counts, the results for `COc1cncc(-c2cc3c(-c4nc5c(-c6cccc(F)c6)cncc5[nH]4)n[nH]c3cn2)c1` [Compound 896, 3-(7-(3-Fluorophenyl)-3H-imidazo[4,5-c]pyridin-2-yl)-5-(5-methoxypyridin-3-yl)-1H-pyrazolo[3,4-c]pyridine] are 31 nM, 140 nM, 300% and ≤ 9 nM.
Regarding `FC1(F)CCN(Cc2cncc(-c3cc4c(-c5nc6c(N7CCCCC7)cncc6[nH]5)n[nH]c4cn3)c2)C1` [Compound 181, 5-(5-((3,3-Difluoropyrrolidin-1-yl)methyl)pyridin-3-yl)-3-(7-(piperidin-1-yl)-3H-imidazo[4,5-c]pyridin-2-yl)-1H-pyrazolo[3,4-c]pyridine], in assay [1], inhibition was half-maximal at 44.8 nM (IC50). Besides, in assay [2], the EC (100% TGF-beta3 activity) was found to be 100 nM and the Emax was determined as 10%. The EC50 in assay [3] was ≤ 9 nM.
For `CCC(=O)Nc1cncc(-c2cc3c(-c4nc5c(-c6cccs6)cncc5[nH]4)n[nH]c3cn2)c1` [Compound 287, N-(5-(3-(7-(Thiophen-2-yl)-3H-imidazo[4,5-c]pyridin-2-yl)-1H-pyrazolo[3,4-c]pyridin-5-yl)pyridin-3-yl)propionamide], in that order: 30.6 nM, 84.2 nM, 300% and 319 nM.
On to `CCCC(=O)Nc1cncc(-c2cc3c(-c4nc5c(-c6cc(F)cc(CNS(C)(=O)=O)c6)cncc5[nH]4)n[nH]c3cn2)c1` [Compound 407, N-(5-(3-(7-(3-Fluoro-5-(methylsulfonamidomethyl)phenyl)-3H-imidazo[4,5-c]pyridin-2-yl)-1H-pyrazolo[3,4-c]pyridin-5-yl)pyridin-3-yl)butyramide], for which, in assay [1], the IC50 stood at 23.9 nM. Also, in assay [2], the EC (100% TGF-beta3 activity) was determined as 79.2 nM and the Emax is 30%. The 50% effective concentration (EC50) in assay [3] was > 10000 nM.
On the same counts, the results for `CC(C)CC(=O)Nc1cncc(-c2cc3c(-c4nc5c(-c6ccc(F)s6)cncc5[nH]4)n[nH]c3cn2)c1` [Compound 314, N-(5-(3-(7-(5-Fluorothiophen-2-yl)-3H-imidazo[4,5-c]pyridin-2-yl)-1H-pyrazolo[3,4-c]pyridin-5-yl)pyridin-3-yl)-3-methylbutanamide] are 7.4 nM, 180 nM, 900% and 173 nM.
Regarding `CCCC(=O)Nc1cncc(-c2cc3c(-c4nc5c(-c6ccsc6)cncc5[nH]4)n[nH]c3cn2)c1` [Compound 251, N-(5-(3-(7-(Thiophen-3-yl)-3H-imidazo[4,5-c]pyridin-2-yl)-1H-pyrazolo[3,4-c]pyridin-5-yl)pyridin-3-yl)butyramide], the IC50 in assay [1] was 33 nM. The EC (100% TGF-beta3 activity) in assay [2] amounted to 42 nM. Besides, the EC50 in assay [3] was ≤ 9 nM.
`Cc1ccc(-c2cncc3[nH]c(-c4n[nH]c5cnc(-c6cncc(N)c6)cc45)nc23)s1` [Compound 341, 5-(3-(7-(5-Methylthiophen-2-yl)-3H-imidazo[4,5-c]pyridin-2-yl)-1H-pyrazolo[3,4-c]pyridin-5-yl)pyridin-3-amine] showed an IC50 in assay [1] of 5.8 nM. In assay [2], the EC (100% TGF-beta3 activity) is 162 nM and the Emax stood at 100%. Also, in assay [3], the half-maximal effective concentration (EC50) is ≤ 9 nM.

As a reminder, the IC50 is the point on the concentration scale where inhibition reaches its midpoint. By EC50 is commonly meant the concentration that produces a half-maximal response.
